Read-outs that look alike come from different tables or passages of the source.
Legend:
Type in all cases: cell-based
[1] = system: Citrobacter freundii species complex OXA-181; assay: MIC, CLSI broth microdilution; conditions: Citrobacter freundii species complex, OXA-181; read-out: MIC
Outline: (§1)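 CLSI broth microdilution with 2-fold serial dilutions over a final range of 16-0.0125 μg/mL. Final inoculum 5×10^5 CFU/mL, using genotyped ATCC or clinical isolates taken two subcultures from frozen stock.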

[2] = system: Escherichia coli ATCC 25922; assay: MIC, CLSI broth microdilution; conditions: ATCC25922
Outline: as §1

[3] = system: Escherichia coli CTX-M-15; assay: MIC, CLSI broth microdilution; conditions: CTXM15
Outline: as §1

[4] = system: Klebsiella aerogenes VIM-1, SHV-12; assay: MIC, CLSI broth microdilution
Outline: as §1

[5] = system: Klebsiella oxytoca KPC-2, TEM-1; assay: MIC, CLSI broth microdilution
Outline: as §1

[6] = system: Klebsiella pneumoniae KPC-2; assay: MIC, CLSI broth microdilution; conditions: KPC2
Outline: as §1

[7] = system: Klebsiella pneumoniae KPC-3; assay: MIC, CLSI broth microdilution
Outline: as §1

[8] = system: Klebsiella pneumoniae OXA-163, OXA-1_OXA-30, SHV-1, TEM-1; assay: MIC, CLSI broth microdilution
Outline: as §1

[9] = system: Klebsiella pneumoniae OXA-48, SHV-1; assay: MIC, CLSI broth microdilution
Outline: as §1

[10] = system: Klebsiella pneumoniae SHV-12; assay: MIC, CLSI broth microdilution
Outline: as §1

[11] = system: Pseudomonas aeruginosa ATCC 27853; assay: MIC, CLSI broth microdilution; conditions: ATCC27853
Outline: as §1

[12] = system: Pseudomonas aeruginosa AmpC overexpressed; assay: MIC, CLSI broth microdilution
Outline: as §1

[13] = system: Pseudomonas aeruginosa OprD negative; assay: MIC, CLSI broth microdilution
Outline: as §1

[14] = system: Serratia marcescens AmpC overexpressed; assay: MIC, CLSI broth microdilution
Outline: as §1

[15] = system: Serratia marcescens SME-2; assay: MIC, CLSI broth microdilution; conditions: SME2
Outline: as §1

[16] = system: Citrobacter freundii species complex Elevated AmpC; assay: MIC against Elevated AmpC producing strains, compound alone; conditions: row r16
Method: (§2) Gram-negative and Gram-positive bacterial strains used during the in vitro minimum inhibitory concentration (MIC) determination were obtained either from the American Type Culture Collection (ATCC) or from clinical specimens. All strains were characterized genotypically and the respective antibiotic resistance markers for each strain were identified.
(§3) Isolates were sub-cultured onto appropriate media and stocked in skim milk at −80° C. Following two subcultures from frozen stock, in vitro antimicrobial susceptibility testing was performed using the Clinical and Laboratory Standards Institute (CLSI) broth microdilution method. Briefly, fresh cultures were suspended in culture media to give a final stock inoculum size of 5×10^7 colony forming units per milliliter of broth (CFU/mL). Test compounds were prepared at a stock solution concentration equal to 128 μg/mL, then diluted to give a final an initial working concentration of 32 μg/mL. 100 μL of the stock solutions were added to the first wells in a 96-well plate and were then diluted using a 2-fold dilution method to give a range of 32-0.025 μg/mL. 100 μL of the bacterial suspensions were then added to the 96-well plates to give a final working inoculum size of 5×10^5 CFU/mL. The final compound concentration range was 16-0.0125 μg/mL. […] MICs for comparator agents were determined using custom-designed, in-house prepared 96-well broth microdilution panels.

[17] = system: Enterobacter cloacae species complex Elevated AmpC; assay: as above
Method: as §2, §3

[18] = system: Escherichia coli Elevated AmpC; assay: as above
Method: as §2, §3

[19] = system: Citrobacter freundii species complex Elevated AmpC; assay: Synergistic activity: MIC in the presence of Avibactam; conditions: row r16, in the presence of Avibactam @ 4 μg/mL
Method: as §3
(§4) The same method used to test the activity of the claimed compounds was used to determine their synergistic activity when combined with a β-lactamase inhibitor except that either a fixed concentration or fixed ratio of a β-lactamase inhibitor was added to the 96-well plates prior to adding the bacteria cultures. Synergistic activity was defined as the reduction of MIC of a given compound when tested using the β-lactamase inhibitor versus testing the compound in the absence of a β-lactamase inhibitor.

[20] = system: Enterobacter cloacae species complex Elevated AmpC; assay: as above
Method: as §3, §4

Escherichia coli CMY-DHA = assay: as above
Method: as §3, §4

[21] = system: Escherichia coli Elevated AmpC; assay: as above
Method: as §3, §4

[22] = system: Klebsiella pneumoniae CMY-DHA; assay: as above; conditions: row r32, in the presence of Avibactam @ 4 μg/mL
Method: as §3, §4

[23] = system: Proteus mirabilis CMY-DHA; assay: as above; conditions: row r36, in the presence of Avibactam @ 4 μg/mL
Method: as §3, §4

[24] = in the presence of Avibactam @ 4 μg/mL
[25] = strain of row r7, in the presence of Avibactam @ 4 μg/mL
[26] = strain of row r20, in the presence of Avibactam @ 4 μg/mL
[27] = strain of row r26, in the presence of Avibactam @ 4 μg/mL
[28] = strain of row r27, in the presence of Avibactam @ 4 μg/mL
[29] = strain of row r28, in the presence of Avibactam @ 4 μg/mL
[30] = strain of row r29, in the presence of Avibactam @ 4 μg/mL
[31] = strain of row r30, in the presence of Avibactam @ 4 μg/mL
[32] = strain of row r31, in the presence of Avibactam @ 4 μg/mL
[33] = strain of row r34, in the presence of Avibactam @ 4 μg/mL
[34] = strain of row r35, in the presence of Avibactam @ 4 μg/mL
[35] = strain of row r10, in the presence of Avibactam @ 4 μg/mL
[36] = strain of row r11, in the presence of Avibactam @ 4 μg/mL
[37] = strain of row r12, in the presence of Avibactam @ 4 μg/mL
[38] = strain of row r13, in the presence of Avibactam @ 4 μg/mL
[39] = strain of row r14, in the presence of Avibactam @ 4 μg/mL
[40] = strain of row r15, in the presence of Avibactam @ 4 μg/mL

Measured: MIC

Nc1nc(/C(=N/OC2(C(=O)O)CC2)C(=O)N[C@H]2CON(C3(C(=O)O)C[C@H](N4C(=O)c5cc(O)c(O)cc5C4=O)C(=O)O3)C2=O)cs1 (stereo partly drawn) [Cmpd 1, (4S)-2-[(4S)-4-{[(2Z)-2-(2-amino-1,3-thiazol-4-yl)-2-{[(1-carboxycyclopropyl)oxy]imino}acetyl]amino}-3-oxo-1,2-oxazolidin-2-yl]-4-(5,6-dihydroxy-1,3-dioxo-1,3-dihydro-2H-isoindol-2-yl)-5-oxooxolane-2-carboxylic acid]
0.25 µg/mL: [17]; strain of row r20 | [18]; strain of row r11
0.12 µg/mL: [6] | [11] | [13] | [14] | [18]; strain of row r15 | [20]; [25]
0.03 µg/mL: [1] | [19] | Escherichia coli CMY-DHA; [27] | [23]
2 µg/mL: [17]; strain of row r7
0.06 µg/mL: [2] | [8] | [15] | [18]; strain of row r13 | [18]; strain of row r14 | [20]; [24] | Escherichia coli CMY-DHA; [30] | Escherichia coli CMY-DHA; [32] | [21]; [40]
0.0149 µg/mL: [5] | [7]; KPC3 | [9] | [10]; SHV12
0.015 µg/mL: [18]; strain of row r10 | [21]; [37]
0.5 µg/mL: [4] | [12] | [16] | [17] | [18]; strain of row r12 | [22]
<=0.008 μg/mL: [20]; [26] | Escherichia coli CMY-DHA; [28] | Escherichia coli CMY-DHA; [29] | Escherichia coli CMY-DHA; [31] | Escherichia coli CMY-DHA; [33] | Escherichia coli CMY-DHA; [34] | [21]; [35] | [21]; [36] | [21]; [38] | [21]; [39]
1 µg/mL: [3]

Nc1nc(/C(=N/OC2(C(=O)O)CC2)C(=O)N[C@H]2CON(C3(C(=O)O)C[C@H](N4C(=O)c5cc(O)c(O)cc5C4=O)C(=O)O3)C2=O)ns1 (stereo partly drawn) [Cmpd 18, (4S)-2-[(4S)-4-{[(2Z)-2-(5-amino-1,2,4-thiadiazol-3-yl)-2-{[(1-carboxycyclopropyl)oxy]imino}acetyl]amino}-3-oxo-1,2-oxazolidin-2-yl]-4-(5,6-dihydroxy-1,3-dioxo-1,3-dihydro-2H-isoindol-2-yl)-5-oxooxolane-2-carboxylic acid]
0.06 µg/mL: [1] | [6] | [7]; KPC3, KPC-3, read-out: MIC | [15] | [18]; strain of row r13 | [18]; strain of row r14 | [20]; [24] | Escherichia coli CMY-DHA; [30] | Escherichia coli CMY-DHA; [32] | [21]; [37] | [21]; [40] | [23]
1 µg/mL: [3] | [12] | [16] | [17]
0.25 µg/mL: [17]; strain of row r20 | [18]; strain of row r11 | [18]; strain of row r15 | [22]
0.5 µg/mL: [4] | [14] | [18]; strain of row r12
0.03 µg/mL: [10]; SHV12, SHV-12, read-out: MIC | [18]; strain of row r10 | [19] | Escherichia coli CMY-DHA; [27] | Escherichia coli CMY-DHA; [29]
<=0.008 μg/mL: [20]; [26] | Escherichia coli CMY-DHA; [28] | Escherichia coli CMY-DHA; [31] | [21]; [35] | [21]; [36] | [21]; [38] | [21]; [39]
0.0149 µg/mL: [5]; KPC-2, TEM-1, read-out: MIC | [9]
0.015 µg/mL: Escherichia coli CMY-DHA; [33] | Escherichia coli CMY-DHA; [34]
0.12 µg/mL: [2] | [8] | [11] | [13] | [20]; [25]
4 µg/mL: [17]; strain of row r7

From patent US11780832B2, “Lactivicin compounds, their preparation and use as antibacterial agents” (priority 2021, dated 2023)
